SMILES strings stand for the structures. “And” between values parts separate entries of the source, which are not always exact repeats. Equal values may be shown once. Toxic doses and inconclusive results are not listed.

The test deals with CD2F1 mice, L1210 leukemia sc, survival T/C. In words: NCI In Vivo Anticancer Drug Screen. Data for tumor model L1210 Leukemia (subcutaneous) in CD2F1 (CDF1) mice. The note with it: higher = longer survival. The method, boiled down: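 Transplantable tumor-bearing mice were treated with compound; survival or tumor size measured and expressed as treated-group value (T) divided by vehicle-treated control value (C).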

As to `Nc1ccn(C2OC(COP(=O)(O)O)C(O)C2O)c(=O)n1` (centres undefined), the T/C is, setting by setting: (endpoint: mean survival time, dose: 22.5 mg/kg/injection, schedule: Q ##X009 (ip), vehicle: saline) 181 % of control; (endpoint: mean survival time, dose: 45.0 mg/kg/injection, schedule: Q ##X009 (ip), vehicle: saline) 206 % of control; (endpoint: mean survival time, dose: 90.0 mg/kg/injection, schedule: Q ##X009 (ip), vehicle: saline) 161 % of control; (endpoint: mean survival time, dose: 180.0 mg/kg/injection, schedule: Q ##X009 (ip), vehicle: saline) 176 % of control; (endpoint: median survival time, dose: 22.5 mg/kg/injection, schedule: Q ##X009 (ip), vehicle: saline) 179 % of control; (endpoint: median survival time, dose: 22.5 mg/kg/injection, schedule: Q## X Z (ip), vehicle: saline) 188 % of control. Also, the T/C (endpoint: median survival time, dose: 45.0 mg/kg/injection, schedule: Q ##X009 (ip), vehicle: saline) was 198 % of control; the T/C (endpoint: median survival time, dose: 45.0 mg/kg/injection, schedule: Q## X Z (ip), vehicle: saline) was 211 % of control; the T/C (endpoint: median survival time, dose: 90.0 mg/kg/injection, schedule: Q ##X009 (ip), vehicle: saline) was 175 % of control; the T/C (endpoint: median survival time, dose: 90.0 mg/kg/injection, schedule: Q## X Z (ip), vehicle: saline) is 183 % of control; the T/C (endpoint: median survival time, dose: 180.0 mg/kg/injection, schedule: Q ##X009 (ip), vehicle: saline) was 169 % of control; the T/C (endpoint: median survival time, dose: 180.0 mg/kg/injection, schedule: Q## X Z (ip), vehicle: saline) is 177 % of control.

With `Nc1nc2n[nH]nc2c(=O)[nH]1`, the T/C runs as follows: (endpoint: median survival time, dose: 50.0 mg/kg/injection, schedule: Q01DX009 (sc), vehicle: saline) 122 % of control; (endpoint: median survival time, dose: 75.0 mg/kg/injection, schedule: Q01DX009 (sc), vehicle: saline) 114 % of control.

On to `CCn1cnc2c(SC)ncnc21`, for which the T/C (endpoint: median survival time, dose: 65.0 mg/kg/injection, schedule: Q01DX Z (sc), vehicle: methylcellulose (MC)) was 100 % of control; the T/C (endpoint: median survival time, dose: 108.0 mg/kg/injection, schedule: Q01DX Z (sc), vehicle: methylcellulose (MC)) is 100 % of control; the T/C (endpoint: median survival time, dose: 180.0 mg/kg/injection, schedule: Q01DX Z (sc), vehicle: methylcellulose (MC)) is 100 % of control.

With `Nc1ncnc2c1ncn2C(C=O)OC(C=O)CO` (centres undefined), the T/C is 100 % of control (endpoint: median survival time, dose: 14.0 mg/kg/injection, schedule: Q01DX Z (sc), vehicle: carboxymethylcellulose (CMC)); 105 % of control (endpoint: median survival time, dose: 23.0 mg/kg/injection, schedule: Q01DX Z (sc), vehicle: carboxymethylcellulose (CMC)); 100 % of control (endpoint: median survival time, dose: 39.0 mg/kg/injection, schedule: Q01DX Z (sc), vehicle: carboxymethylcellulose (CMC)); 111 % of control (endpoint: median survival time, dose: 108.0 mg/kg/injection, schedule: Q01DX Z (sc), vehicle: carboxymethylcellulose (CMC)); 100 % of control (endpoint: median survival time, dose: 180.0 mg/kg/injection, schedule: Q01DX Z (sc), vehicle: carboxymethylcellulose (CMC)).

`CN(N=O)C(=O)N[C@@H](C=O)[C@@H](O)[C@H](O)[C@H](O)CO`: the T/C was 110 % of control (endpoint: median survival time, dose: 12.5 mg/kg/injection, schedule: Q01DX009 (ip), vehicle: other); 104 % of control and 109 % of control (endpoint: median survival time, dose: 12.5 mg/kg/injection, schedule: Q01DX009 (sc), vehicle: other); 124 % of control (endpoint: median survival time, dose: 25.0 mg/kg/injection, schedule: Q01DX009 (ip), vehicle: other); 106 % of control and 122 % of control (endpoint: median survival time, dose: 25.0 mg/kg/injection, schedule: Q01DX009 (sc), vehicle: other); 109 % of control (endpoint: median survival time, dose: 50.0 mg/kg/injection, schedule: Q01DX009 (sc), vehicle: other); 121 % of control (endpoint: median survival time, dose: 100.0 mg/kg/injection, schedule: Q01DX009 (ip), vehicle: other). The T/C was 115 % of control (endpoint: median survival time, dose: 100.0 mg/kg/injection, schedule: Q01DX009 (sc), vehicle: other) and 111 % of control (endpoint: median survival time, dose: 200.0 mg/kg/injection, schedule: Q01DX009 (sc), vehicle: other).

Regarding `C1CN1c1nc(N2CC2)nc(N2CC2)n1`, the T/C is 110 % of control (endpoint: median survival time, dose: 0.1 mg/kg/injection, schedule: Q01DX009 (ip), vehicle: saline); 108 % of control (endpoint: median survival time, dose: 0.1 mg/kg/injection, schedule: Q01DX009 (sc), vehicle: saline); 117 % of control (endpoint: median survival time, dose: 0.2 mg/kg/injection, schedule: Q01DX009 (ip), vehicle: saline); 118 % of control (endpoint: median survival time, dose: 0.2 mg/kg/injection, schedule: Q01DX009 (sc), vehicle: saline); 114 % of control (endpoint: median survival time, dose: 0.27 mg/kg/injection, schedule: Q01DX009 (ip), vehicle: saline); 110 % of control (endpoint: median survival time, dose: 0.27 mg/kg/injection, schedule: Q01DX009 (sc), vehicle: saline). In addition, the T/C is 151 % of control (endpoint: median survival time, dose: 0.4 mg/kg/injection, schedule: Q01DX009 (ip), vehicle: saline); 157 % of control (endpoint: median survival time, dose: 0.45 mg/kg/injection, schedule: Q01DX009 (ip), vehicle: saline); 168 % of control (endpoint: median survival time, dose: 0.45 mg/kg/injection, schedule: Q01DX009 (sc), vehicle: saline); 184 % of control (endpoint: median survival time, dose: 0.6 mg/kg/injection, schedule: Q01DX009 (ip), vehicle: saline); 180 % of control (endpoint: median survival time, dose: 0.6 mg/kg/injection, schedule: Q01DX009 (sc), vehicle: saline); 119 % of control (endpoint: median survival time, dose: 0.8 mg/kg/injection, schedule: Q01DX009 (ip), vehicle: saline). Moreover, the T/C (endpoint: median survival time, dose: 0.9 mg/kg/injection, schedule: Q01DX009 (ip), vehicle: saline) is 101 % of control and the T/C (endpoint: median survival time, dose: 0.9 mg/kg/injection, schedule: Q01DX009 (sc), vehicle: saline) is 113 % of control.

As to `NCCCNCCCCNC(=O)C(O)NC(=O)CCCCCCN=C(N)N` (centres undefined), the T/C is 156 % of control (endpoint: median survival time, dose: 0.75 mg/kg/injection, schedule: Q01DX009 (ip), vehicle: saline); 172 % of control (endpoint: median survival time, dose: 1.5 mg/kg/injection, schedule: Q01DX009 (ip), vehicle: saline); 162 % of control and 183 % of control (endpoint: median survival time, dose: 1.56 mg/kg/injection, schedule: Q01DX009 (ip), vehicle: saline); 192 % of control (endpoint: median survival time, dose: 3.0 mg/kg/injection, schedule: Q01DX009 (ip), vehicle: saline); 198 % of control and 203 % of control (endpoint: median survival time, dose: 3.12 mg/kg/injection, schedule: Q01DX009 (ip), vehicle: saline); 107 % of control (endpoint: median survival time, dose: 4.0 mg/kg/injection, schedule: Q01DX001 (ip), vehicle: saline). In addition, the T/C (endpoint: median survival time, dose: 4.0 mg/kg/injection, schedule: Q03HX008 (ip), vehicle: saline) was 121 % of control; the T/C (endpoint: median survival time, dose: 6.0 mg/kg/injection, schedule: Q01DX009 (ip), vehicle: saline) was 237 % of control; the T/C (endpoint: median survival time, dose: 6.25 mg/kg/injection, schedule: Q01DX009 (ip), vehicle: saline) was 207 % of control and 235 % of control; the T/C (endpoint: median survival time, dose: 8.0 mg/kg/injection, schedule: Q01DX001 (ip), vehicle: saline) was 103 % of control and 109 % of control; the T/C (endpoint: median survival time, dose: 12.0 mg/kg/injection, schedule: Q01DX009 (ip), vehicle: saline) is 239 % of control; the T/C (endpoint: median survival time, dose: 12.5 mg/kg/injection, schedule: Q01DX009 (ip), vehicle: saline) was 228 % of control and 231 % of control. Further, the T/C is, setting by setting: (endpoint: median survival time, dose: 16.0 mg/kg/injection, schedule: Q01DX001 (ip), vehicle: saline) 107 % of control and 113 % of control; (endpoint: median survival time, dose: 25.0 mg/kg/injection, schedule: Q01DX009 (ip), vehicle: saline) 160 % of control and 220 % of control and 275 % of control; (endpoint: median survival time, dose: 32.0 mg/kg/injection, schedule: Q01DX001 (ip), vehicle: saline) 115 % of control and 123 % of control.

Values taken from PubChem BioAssay AID258 (DTP/NCI, 2004).
